Reference: publication PMC11371785 (Frontiers in Pharmacology, 2024)
Marks after values point to notes of the source that are not given here.

Experiments:
[1] = tested on: bone marrow cells of mice; experiment: Micronucleus (MN) assay; conditions: SEM
Procedure: (§1) The negative control group (group a) was treated with 0.2 mL of the vehicle, while the positive control group (group g) was also treated with the 20 mg/kg dosage of cyclophosphamide. […] The blood samples were collected for haematological analysis, while the liver and kidney were also collected for histopathological analysis and fixed in 10% formalin.
The animals used for the subacute toxicity test were also used for the MN assay because the treatment follows the same procedure, but the positive control, cyclophosphamide (group g) for MN, is a single-dose treatment that was given intraperitoneally. The MN assay was carried out as described by Jain and Pandey ([Jain and Pandey, 2019]), four animals were sacrificed from each group by cervical dislocation, and both femurs were removed. The epiphyses were removed from the femur, and the bone marrow was flushed with fetal bovine serum (FBS) into Eppendorf tubes (1.5 mL). After a light tap to ensure appropriate cell dispersion, it was centrifuged at 2,000 rpm for 5 minutes. The pellet was suspended in another 1 mL of FBS in the Eppendorf tube, thoroughly mixed using a micropipette, and centrifuged once more at the same rate after the supernatant was discarded. Once more, the supernatant was removed, and the pellet was mixed with 0.5 mL of FBS before a few drops of the viscous mixture were dropped on a clean, oil-free slide. This drop was spread on the slide and allowed to air dry.
The slides were stained with 0.4% May-Grunewald stain for 3-4 min and were immediately transferred into another coupling jar containing May-Grunewald and distilled water (ratio 1:1) and allowed to stain for another 3-4 min. The slides were rinsed in distilled water and allowed to dry completely. Then, it was also stained in 5% Giemsa stain for 5 min, rinsed in distilled water, and allowed to dry completely. A minimum of 1,000 cells from each mouse were examined for micronuclei in polychromatic erythrocytes (MNPCE) using a light microscope at a magnification of 1,000X (oil immersion). The relative size of the erythrocytes and the difference in staining between PCEs (bluish-purple) and normochromatic erythrocytes (NCEs, pink-orange) are used to distinguish between them.

[2] = Weight of experimental animals for toxicity test; conditions: SEM
Procedure: as §1

liver and kidney of mice = experiment: Subacute toxicity test: liver and kidney histopathology; conditions: 20 mg/kg, positive control (group g)
Procedure: as §1
The tissues were sliced into small pieces not more than 4 mm thick and then submerged in 10% formal saline for 24 h to fix, according to the protocols of [Avwioro et al., (2010)] for histopathology investigations. The tissue processing was carried out automatically using an automatic tissue processor (Leica TP 1020) by letting the tissues pass through several reagents: 10% formal saline was used in Stations 1 and 2, and alcohol in Stations 3 through 7 was used to dehydrate the tissues. The tissues were then moved into Stations 10 to 12, which contained wax for infiltration or impregnation, after passing through Stations 8 and 9, which contained xylene for the purpose of […]. Tissues stayed in each station for 1 hour during the 12-h duration of these operations. The tissues were then covered with molten paraffin wax, allowed to cool on ice, and then sectioned at a 4-micrometer interval. These parts were picked up using clean, labeled slides and floated in a water bath set at 55°C. […]

Plasmodium berghei ANKA [3] = experiment: Peter's 4-day suppressive test; type: in vivo; conditions: 4 days, D4; for Suppressive parasitemia (%): n = 5, ±SEM
Procedure: (§2) Twenty-five (25) albino mice (weighing 22 ± 2 g) were randomly divided into five (5) groups of five animals per group (n = 5). Parasitized blood was obtained from infected donor mouse with rising parasitaemia (≥ 20%) by cardiac puncture and the infected blood was diluted with phosphate saline glucose buffer (PSG-mouse) to attain an estimate of 5 × 10^7 red blood cells per ml. Then, 0.2 mL of inoculum containing 1 × 10^7 infected RBCs was injected into the abdominal cavity of experimental animals by intraperitoneal (ip) injection.
(§3) All drugs were administered orally for 4 days.
(§4) The chemo-suppressive effect of HA in mice infected with P. berghei was assessed using Peter’s 4-day suppressive test. The mice were infected with the malaria parasite inoculum (1 × 10^7 P.berghei ANKA) on the first day of the experiment (D0) and treated as indicated in the section above on Animal Grouping and Drug Administration after 2 h post-infection. The treatment continues for another three consecutive days. Each mouse’s parasitaemia level was assessed 96 h after infection (D4). Animals in each group had their PCV, rectal temperature, and body weight measured both before and after the experiment.
Parasitaemia was determined by counting the number of infected RBCs (minimum of four fields per slide) using a light microscope with an objective lens magnification power of 1,000x. Percentage parasitaemia and percentage chemo-suppression were calculated using the modified Peters and Robinson formula ([Nyandwaro et al., 2020]): % parasitemia=number of parasitized RBCs/total number of RBC count×100 % chemo−suppression=% parasitemia in negative control− % parasitemia in study group/% parasitemia in negative control×100

Plasmodium berghei ANKA [4] = experiment: Mean survival time of P. berghei-infected mice; type: in vivo; conditions: 4 days, monitored 30 days, n = 5, ±SEM
Procedure: as §2, §3
The survival rate was monitored from the first day of the treatment to 30 days. Each mouse’s mortality was monitored and recorded in days. The mean survival time (MST) of mice in each group was determined, as shown below. MST=sum of survival time of all mice in a group in days/total number of mice in a group

[5] = tested on: Plasmodium berghei infected mice; experiment: Body weight, rectal temperature and packed cell volume in the suppressive test; type: in vivo, Mus musculus; conditions: SEM; for Weight (g) initial / Temperature (°C) initial: before the experiment; for Weight (g) initial / Temperature (°C) initial / Weight (g) final / Temperature (°C) final: n = 5; for PCV (%) DAY 0: first day of infection; for Temperature (°C) initial / Temperature (°C) final: rectal; for Percentage change in PCV (%) DAY 0 / Percentage change in temperature (%) / Weight (g) final / PCV (%) DAY 4 / Percentage change in weight (%) / Temperature (°C) final / PCV (%) DAY 9 / Percentage change in PCV (%) DAY 9: 4 days; for Weight (g) final / Temperature (°C) final: after the experiment; for PCV (%) DAY 4: fifth day after infection; for Percentage change in weight (%): infected mice; for PCV (%) DAY 9 / Percentage change in PCV (%) DAY 9: tenth day after infection
Procedure: as §2, §3, §4
Blood samples were taken from each mouse’s tail using heparinized capillary tubes, sealed, and then put into a micro haematocrit centrifuge to calculate the packed cell volume of the blood. After being centrifuged for 5 min at 12,000 rpm, the blood samples’ PCV was calculated using the following formula: Packed Cell Volume=volume of erythrocyes in a given volume of blood/total volume of blood×100
The body weight and rectal temperature of each mouse were also determined using a sensitive digital weighing balance and rectal thermometer, respectively.

[6] = 20 mg/kg/bwt single dose intraperitoneally

Structure (SMILES): O=P1(N(CCCl)CCCl)NCCCO1 (stereo not shown) [CYP, Cyclophosphamide]
- MnNCE (micronucleated normochromatic erythrocytes) [1, 6]: 100.9 ± 11.99
- MnPCE (micronucleated polychromatic erythrocytes) [1, 6]: 225.9 ± 8.84
- Others (other abnormalities) [1, 6]: 119.2 ± 19.59
- PCE: NCE (polychromatic erythrocytes/normochromatic erythrocytes ratio) [1, 6]: 0.51 ± 0.04
- Weight (g) final ([2]; 20 mg/kg (positive control), n = 5): 24.43 ± 0.25 g
- Percentage change in weight (%) ([2]; 20 mg/kg (positive control), toxicity test): −0.50 ± 0.34%
- Weight (g) initial ([2]; 20 mg/kg group (positive control), toxicity test, n = 5): 24.53 ± 0.27 g
- Kidney histological presentation (liver and kidney of mice): normal architecture
- Liver histological presentation (liver and kidney of mice): normal architecture

Structure (SMILES): CCCCCCCCCCCCCCCC(=O)O [HA, n-Hexadecanoic acid]
- Percentage chemosuppression (%) (Plasmodium berghei ANKA [3]; 10 mg/kg oral): 71.58%
- Suppressive parasitemia (%) (Plasmodium berghei ANKA [3]; 10 mg/kg oral): 1.89 ± 0.30^ab %
- Percentage chemosuppression (%) (Plasmodium berghei ANKA [3]; 50 mg/kg oral): 83.80%
- Suppressive parasitemia (%) (Plasmodium berghei ANKA [3]; 50 mg/kg oral): 1.08 ± 0.29 ^a %
- Percentage chemosuppression (%) (Plasmodium berghei ANKA [3]; 100 mg/kg oral): 89.74%
- Suppressive parasitemia (%) (Plasmodium berghei ANKA [3]; 100 mg/kg oral): 0.68 ± 0.18 ^a %
- MnNCE (micronucleated normochromatic erythrocytes) ([1]; 2 mg/kg oral, 14 days): 3.42 ± 0.30
- MnPCE (micronucleated polychromatic erythrocytes) ([1]; 2 mg/kg oral, 14 days): 6.25 ± 0.88
- MnNCE (micronucleated normochromatic erythrocytes) ([1]; 5 mg/kg oral, 14 days): 3.17 ± 0.74
- MnPCE (micronucleated polychromatic erythrocytes) ([1]; 5 mg/kg oral, 14 days): 9.08 ± 1.30
- MnNCE (micronucleated normochromatic erythrocytes) ([1]; 10 mg/kg oral, 14 days): 6.67 ± 2.25
- MnPCE (micronucleated polychromatic erythrocytes) ([1]; 10 mg/kg oral, 14 days): 11.58 ± 2.00
- MnNCE (micronucleated normochromatic erythrocytes) ([1]; 50 mg/kg oral, 14 days): 7.19 ± 0.98
- MnPCE (micronucleated polychromatic erythrocytes) ([1]; 50 mg/kg oral, 14 days): 18.86 ± 1.74
- MnNCE (micronucleated normochromatic erythrocytes) ([1]; 100 mg/kg oral, 14 days): 8.00 ± 0.84
- MnPCE (micronucleated polychromatic erythrocytes) ([1]; 100 mg/kg oral, 14 days): 23.11 ± 0.58
- MST (days) (Plasmodium berghei ANKA [4]; 10 mg/kg oral): 15.60 ± 2.62 ^d days
- MST (days) (Plasmodium berghei ANKA [4]; 50 mg/kg oral): 9.20 ± 1.16 ^d days
- MST (days) (Plasmodium berghei ANKA [4]; 100 mg/kg oral): 11.40 ± 1.6 ^d days
- Weight (g) initial ([5]; 10 mg/kg group): 22.88 ± 0.47 g
- PCV (%) DAY 0 ([5]; 10 mg/kg group): 42.63 ± 1.25%
- Temperature (°C) initial ([5]; 10 mg/kg group): 32.26 ± 0.33 °C
- Percentage change in PCV (%) DAY 0 ([5]; 10 mg/kg oral): 6.00 ± 13.99%
- Percentage change in temperature (%) ([5]; 10 mg/kg oral): −6.08 ± 1.60%
- Weight (g) final ([5]; 10 mg/kg oral): 19.24 ± 0.81 g
- PCV (%) DAY 4 ([5]; 10 mg/kg oral): 43.75 ± 5.11%
- Percentage change in weight (%) ([5]; 10 mg/kg oral): −15.99 ± 2.63%
- Temperature (°C) final ([5]; 10 mg/kg oral): 30.28 ± 0.24 °C
- PCV (%) DAY 9 ([5]; 10 mg/kg oral): 23.12 ± 0.46%
- Percentage change in PCV (%) DAY 9 ([5]; 10 mg/kg oral): −45.54 ± 3.26%
- Weight (g) initial ([5]; 50 mg/kg group): 24.48 ± 0.71 g
- PCV (%) DAY 0 ([5]; 50 mg/kg group): 46.60 ± 2.88%
- Temperature (°C) initial ([5]; 50 mg/kg group): 32.20 ± 0.32 °C
- Percentage change in PCV (%) DAY 0 ([5]; 50 mg/kg oral): 3.54 ± 3.53%
- Percentage change in temperature (%) ([5]; 50 mg/kg oral): −6.56 ± 1.17%
- Weight (g) final ([5]; 50 mg/kg oral): 22.94 ± 1.24 g
- PCV (%) DAY 4 ([5]; 50 mg/kg oral): 48.20 ± 3.14%
- Percentage change in weight (%) ([5]; 50 mg/kg oral): −6.46 ± 2.75%
- Temperature (°C) final ([5]; 50 mg/kg oral): 30.08 ± 0.37 °C
- PCV (%) DAY 9 ([5]; 50 mg/kg oral): 22.93 ± 4.57%
- Percentage change in PCV (%) DAY 9 ([5]; 50 mg/kg oral): −51.35 ± 8.51%
- Weight (g) initial ([5]; 100 mg/kg group): 22.19 ± 0.40 g
- PCV (%) DAY 0 ([5]; 100 mg/kg group): 40.94 ± 2.51%
- Temperature (°C) initial ([5]; 100 mg/kg group): 32.20 ± 0.06 °C
- Percentage change in PCV (%) DAY 0 ([5]; 100 mg/kg oral): 5.03 ± 2.78%
- Percentage change in temperature (%) ([5]; 100 mg/kg oral): −6.39 ± 1.59%
- Weight (g) final ([5]; 100 mg/kg oral): 19.99 ± 0.31 g
- PCV (%) DAY 4 ([5]; 100 mg/kg oral): 43.00 ± 5.03%
- Percentage change in weight (%) ([5]; 100 mg/kg oral): −9.77 ± 2.56%
- Temperature (°C) final ([5]; 100 mg/kg oral): 30.14 ± 0.46 °C
- PCV (%) DAY 9 ([5]; 100 mg/kg oral): 25.42 ± 12.08%
- Percentage change in PCV (%) DAY 9 ([5]; 100 mg/kg oral): −39.10 ± 10.67%
